The values below come from ChEMBL document CHEMBL3045702, “Cytotoxic lipid esters from Peucedanum ledebourielloides” (Med Chem Res, 2010).

Values after ≈ are worked out from the molar mass of the structure shown.

What all share (assay type): functional, cell-based
One experiment relates to SGC-7901. Description: Cytotoxicity against Homo sapiens (human) SGC7901 cells by MTT assay. In general terms: Tetrazolium dyes change colour on reduction, which living cells bring about.
Another experiment relates to HT-29. Description: Cytotoxicity against Homo sapiens (human) HT-29 cells by MTT assay.
The subject of another experiment is HL-60. Description: Cytotoxicity against Homo sapiens (human) HL60 cells by MTT assay.

`CCCCCCCCCCCCCCCC(=O)OCC(CO[C@@H]1O[C@H](CO)[C@@H](O)[C@H](O)[C@H]1O)OC(=O)CCCCCCCCCCCCCCC` (some centres undefined): the figures for the IC50 in the experiment on SGC-7901, in the experiment with HT-29 and with HL-60 were 4.9 mg/L (≈ 6.7 µM), 0.21 mg/L (≈ 0.287 µM) and 27.7 mg/L (≈ 37.9 µM), respectively.

In the case of `CCCCCCCCCCCCCCCC(=O)OCCCCCCOC(=O)CCCCCCCCCCCCCCC`, the values for the IC50 in the experiment with SGC-7901, in the experiment with HT-29 and in the experiment on HL-60 were 1.6 mg/L (≈ 2.69 µM), 34.2 mg/L (≈ 57.5 µM) and 0.49 mg/L (≈ 0.824 µM), respectively.

For `O=c1[nH]cc(F)c(=O)[nH]1` [FLUOROURACIL], the IC50 (in general, the point on the concentration scale where inhibition reaches its midpoint) with SGC-7901 is 0.58 mg/L (≈ 4.46 µM); with HT-29, 10.3 mg/L (≈ 78.9 µM); in the experiment with HL-60 it was 25.4 mg/L (≈ 195 µM).
